# Measurements reported in patent publication US7759345B2, “Antitumoral derivatives of ET-743” (priority 2001, dated 2010).
# Key:
# A-549 = assay: Inhibition of cells growth by colorimetric assay (SRB), A-549; format: cell-based; details: for GI50 / LC50 (concentration for 50% cell killing): Homo sapiens, A549, 48 h; for GI50 / A-549 TGI: SRB assay, 48 hours exposure; for GI50: read-out: A-549 GI50; for LC50 (concentration for 50% cell killing): read-out: A-549 LC50, SRB assay, 48 hours exposure
# How it was run: (§1)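 Using sulforhodamine B, cell growth and viability are quantified after a 48 h drug exposure of cells maintained in RPMI 1640/10% FBS at 37 °C, 5% CO2. Concentrations span 10 to 10^−8 μg/ml; optical density is read at 490 nm.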
# SK-MEL-28 = assay: Inhibition of cells growth by colorimetric assay (SRB), SK-MEL-28; format: cell-based; details: for GI50: read-out: MEL-28 GI50
# How it was run: as §1
# HT-29 = assay: Inhibition of cells growth by colorimetric assay (SRB), HT-29; format: cell-based; details: for GI50 / LC50 (concentration for 50% cell killing): Homo sapiens, HT-29, 48 h; for GI50 / HT-29 TGI: SRB assay, 48 hours exposure; for GI50: read-out: HT-29 GI50; for LC50 (concentration for 50% cell killing): read-out: HT-29 LC50, SRB assay, 48 hours exposure
# How it was run: as §1
# PANC-1 = assay: Inhibition of cells growth by colorimetric assay (SRB), PANC-1; format: cell-based
# How it was run: as §1
# HMEC1 = assay: Inhibition of cells growth by colorimetric assay (SRB), HMEC1; format: cell-based
# Protocol: (§2) 2°.—Inhibition of Cells Growth by Colorimetric Assay.
# (§3) A colorimetric type of assay, using sulforhodamine B (SRB) reaction has been adapted for a quantitative measurement of cell growth and viability [following the technique described by Philip Skehan, et al. (1990), New colorimetric cytotoxicity assay for anticancer drug screening, J. Natl. Cancer Inst., 82:1107-1112]
# (§4) This form of the assay employs 96 well cell culture microplates of 9 mm diameter (Faircloth, 1988; Mosmann, 1983). Most of the cell lines are obtained from American Type Culture Collection (ATCC) derived from different human cancer types.
# (§5) Cells are maintained in RPMI 1640 10% FBS, supplemented with 0.1 g/l penicillin and 0.1 g/l streptomycin sulfate and then incubated at 37° C., 5% CO2 and 98% humidity. For the experiments, cells were harvested from subconfluent cultures using trypsin and resuspended in fresh medium before plating.
# (§6) Cells are seeded in 96 well microtiter plates, at 5×10^3 cells per well in aliquots of 195 μl medium, and they are allowed to attach to the plate surface by growing in drug free medium for 18 hours. Afterward, samples are added in aliquots of 5 μl in a ranging from 10 to 10^−8 μg/ml, dissolved in DMSO/EtOH/PBS (0.5:0.5:99). After 48 hours exposure, the antitumor effect are measured by the SRB methodology: cells are fixed by adding 50 μl of cold 50% (wt/vol) trichloroacetic acid (TCA) and incubating for 60 minutes at 4° C. Plates are washed with deionized water and dried. One hundred μl of SRB solution (0.4% wt/vol in 1% acetic acid) is added to each microtiter well and incubated for 10 minutes at room temperature. Unbound SRB is removed by washing with 1% acetic acid. Plates are air dried and bound stain is solubilized with Tris buffer. Optical densities are read on a automated spectrophotometric plate reader at a single wavelength of 490 nm.
# (§7) The values for mean+/−SD of data from triplicate wells are calculated. Some parameters for cellular responses can be calculated: GI=growth inhibition, TGI=total growth inhibition (cytostatic effect) and LC=cell killing (cytotoxic effect).
# (§8) Obtained results may predict the usefulness of a certain drug as a potential cancer treatment. For this technique, compounds which show GI50 values smaller than 10 μg/ml are selected to continue with further studies. GI50's data allow to predict that not only could a drug be cystostatic, but also it could have a potential in terms of tumor reduction.
# LoVo-Dox = assay: Inhibition of cells growth by colorimetric assay (SRB), LoVo-Dox; format: cell-based
# How it was run: as §1
# DU-145 = assay: Inhibition of cells growth by colorimetric assay (SRB), DU-145; format: cell-based
# How it was run: as §1
# SK-OV-3 = assay: Inhibition of cells growth by colorimetric assay (SRB), SK-OV-3; format: cell-based
# How it was run: as §1
# IGROV-ET = assay: Inhibition of cells growth by colorimetric assay (SRB), IGROV-ET; format: cell-based
# How it was run: as §1
# LNCaP = assay: Inhibition of cells growth by colorimetric assay (SRB), LNCaP; format: cell-based
# Protocol: as §2, §3, §4, §5, §6, §7, §8
# SK-BR-3 = assay: Inhibition of cells growth by colorimetric assay (SRB), SK-BR-3; format: cell-based
# Protocol: as §2, §3, §4, §5, §6, §7, §8
# K-562 = assay: Inhibition of cells growth by colorimetric assay (SRB), K-562; format: cell-based
# How it was run: as §1
# IGROV-1 = assay: Inhibition of cells growth by colorimetric assay (SRB), IGROV-1; format: cell-based
# How it was run: as §1
# LoVo = assay: Inhibition of cells growth by colorimetric assay (SRB), LoVo; format: cell-based
# How it was run: as §1
# [1] = Homo sapiens, SK-MEL-28, 48 h, SRB assay, 48 hours exposure
# Source text for Kidney: (§9) Toxicity was asssessed by the methods reported in Toxicology in Vitro, 15 (2001) 571-577, J. Luber Narod et al.: “Evaluation of the use of in vitro methodolodies as tools for screening new compounds for potential in vivo toxicity”.
# Source text for Liver: as §9
# Source text for Skeletal: as §9
compound,measurement,setting,value
COc1cc2c(cc1O)CCN(C)[C@]21CS[C@@H]2c3c(OC(C)=O)c(C)c4c(c3[C@H](COC1=O)N1C2[C@@H]2N[C@@H](Cc3cc(C)c(OC)c(O)c32)[C@@H]1O)OCO4 (stereo partly shown) [Compound 217],GI50,A-549,2.1 nM
same,LC50 (concentration for 50% cell killing),A-549,45.7 nM
same,A-549 TGI,A-549,6.16E-09
same,Toxicity Data Liver,Liver,1.07E-09
same,GI50,SK-MEL-28; [1],0.537 nM
same,Toxicity Data Kidney,Kidney,2.66E-13
same,Toxicity Data Skeletal,Skeletal,3.37E-12
same,GI50,HT-29,13.1 nM
same,LC50 (concentration for 50% cell killing),HT-29,13100 nM
same,HT-29 TGI,HT-29,1.31E-05
COc1cc2c(cc1O)CCN[C@]21CS[C@@H]2c3c(O)c(C)c4c(c3[C@H](COC1=O)N1C2[C@H]2c3c(cc(C)c(OC)c3O)C[C@@H]([C@@H]1O)N2C)OCO4 (stereo partly shown) [Et-701],GI50,"PANC-1; Homo sapiens, PANC-1, 48 h, SRB assay, 48 hours exposure, read-out: PANC-1 GI50",4.61 nM
same,LC50 (concentration for 50% net cell kill),"PANC-1; Homo sapiens, PANC-1, 48 h, read-out: PANC-1 LC50, SRB assay, 48 hours exposure",206 nM
same,PANC-1 TGI,"PANC-1; SRB assay, 48 hours exposure",1.19E-08
same,GI50,"HMEC1; Homo sapiens, HMEC-1, 48 h, SRB assay, 48 hours exposure, read-out: HMEC-1 GI50",3.99 nM
same,LC50,"HMEC1; Homo sapiens, HMEC-1, 48 h, read-out: HMEC-1 LC50, SRB assay, 48 hours exposure",4570 nM
same,HMEC-1 TGI,"HMEC1; SRB assay, 48 hours exposure",1.35E-08
same,GI50,A-549,2.99 nM
same,LC50 (concentration for 50% cell killing),A-549,13.9 nM
same,A-549 TGI,A-549,7.06E-09
same,GI50,"LoVo-Dox; Homo sapiens, 48 h, SRB assay, 48 hours exposure, read-out: LOVO-DOX GI50",50.6 nM
same,CC50,"LoVo-Dox; Homo sapiens, 48 h, read-out: LOVO-DOX LC50, SRB assay, 48 hours exposure",13900 nM
same,LOVO-DOX TGI,"LoVo-Dox; SRB assay, 48 hours exposure",5.46E-07
same,GI50,SK-MEL-28; [1],9.74 nM
same,CC50,"SK-MEL-28; Homo sapiens, SK-MEL-28, 48 h, read-out: MEL-28 LC50, SRB assay, 48 hours exposure",122 nM
same,MEL-28 TGI,"SK-MEL-28; SRB assay, 48 hours exposure",3.50E-08
same,GI50,"DU-145; Homo sapiens, DU-145, 48 h, SRB assay, 48 hours exposure, read-out: DU-145 GI50",4.04 nM
same,CC50,"DU-145; Homo sapiens, DU-145, 48 h, read-out: DU-145 LC50, SRB assay, 48 hours exposure",2970 nM
same,DU-145 TGI,"DU-145; SRB assay, 48 hours exposure",9.70E-09
same,GI50,"SK-OV-3; Homo sapiens, SK-OV-3, 48 h, SRB assay, 48 hours exposure, read-out: SK-OV3 GI50",2.1 nM
same,LC50,"SK-OV-3; Homo sapiens, SK-OV-3, 48 h, read-out: SK-OV3 LC50, SRB assay, 48 hours exposure",9850 nM
same,SK-OV3 TGI,"SK-OV-3; SRB assay, 48 hours exposure",1.08E-08
same,GI50,"IGROV-ET; Homo sapiens, 48 h, SRB assay, 48 hours exposure, read-out: IGROV-ET GI50",16.4 nM
same,CC50,"IGROV-ET; Homo sapiens, 48 h, read-out: IGROV-ET LC50, SRB assay, 48 hours exposure",3750 nM
same,IGROV-ET TGI,"IGROV-ET; SRB assay, 48 hours exposure",7.78E-08
same,GI50,"LNCaP; Homo sapiens, LNCaP, 48 h, read-out: LNCAP GI50, SRB assay, 48 hours exposure",0.324 nM
same,CC50,"LNCaP; Homo sapiens, LNCaP, 48 h, read-out: LNCAP LC50, SRB assay, 48 hours exposure",5.28 nM
same,LNCAP TGI,"LNCaP; SRB assay, 48 hours exposure",1.56E-09
same,GI50,"SK-BR-3; Homo sapiens, SK-BR-3, 48 h, SRB assay, 48 hours exposure, read-out: SK-BR3 GI50",2.21 nM
same,CC50,"SK-BR-3; Homo sapiens, SK-BR-3, 48 h, read-out: SK-BR3 LC50, SRB assay, 48 hours exposure",27.5 nM
same,SK-BR3 TGI,"SK-BR-3; SRB assay, 48 hours exposure",6.25E-09
same,GI50,"K-562; Homo sapiens, K562, 48 h, SRB assay, 48 hours exposure, read-out: K-562 GI50",1.33 nM
same,LC50 (50% cell killing),"K-562; Homo sapiens, K562, 48 h, read-out: K-562 LC50, SRB assay, 48 hours exposure",11.3 nM
same,K-562 TGI,"K-562; SRB assay, 48 hours exposure",3.50E-09
same,GI50,HT-29,4.24 nM
same,LC50 (concentration for 50% cell killing),HT-29,9560 nM
same,HT-29 TGI,HT-29,3.72E-08
same,GI50,"IGROV-1; Homo sapiens, IGROV-1, 48 h, SRB assay, 48 hours exposure, read-out: IGROV GI50",2.33 nM
same,CC50,"IGROV-1; Homo sapiens, IGROV-1, 48 h, read-out: IGROV LC50, SRB assay, 48 hours exposure",11.1 nM
same,IGROV TGI,"IGROV-1; SRB assay, 48 hours exposure",5.08E-09
same,GI50,"LoVo; Homo sapiens, LoVo, 48 h, SRB assay, 48 hours exposure, read-out: LOVO GI50",4.56 nM
same,LC50 (concentration for 50% cell killing),"LoVo; Homo sapiens, LoVo, 48 h, read-out: LOVO LC50, SRB assay, 48 hours exposure",3750 nM
same,LOVO TGI,"LoVo; SRB assay, 48 hours exposure",1.18E-08
